Experimental data published in paper PMC6947571, “An Orthologue of the Retinoic Acid Receptor (RAR) Is Present in the Ecdysozoa Phylum Priapulida” (Genes, 2019).

Target: T1, HsaRARα LBD (Homo sapiens, UniProt P10276)
T1 construct: gene RARA; glutathione S-transferase fusion (pGEX-4T-1), E. coli BL21(DE3)
T1 sequence (P10276 183-417 limits assumed): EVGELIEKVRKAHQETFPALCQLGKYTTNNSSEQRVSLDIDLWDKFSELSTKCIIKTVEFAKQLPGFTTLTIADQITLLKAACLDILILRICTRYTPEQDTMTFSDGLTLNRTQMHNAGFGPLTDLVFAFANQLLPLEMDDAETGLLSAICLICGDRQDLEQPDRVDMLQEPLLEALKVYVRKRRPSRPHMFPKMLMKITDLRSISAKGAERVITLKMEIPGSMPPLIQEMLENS
Test: competitive radioligand binding, hydroxyapatite precipitation
Settings: 4 °C, labelled compound, positive control

Compound	competitive radioligand binding, hydroxyapatite precipitation (10 nM [3H]ATRA or [3H]9cisRA displaced by unlabelled 9cisRA)	competitive radioligand binding, hydroxyapatite precipitation (10 nM [3H]ATRA displaced by unlabelled ATRA)
CC1=C(/C=C/C(C)=C\C=C\C(C)=C\C(=O)O)C(C)(C)CCC1 [9cisRA]	Competition by ATRA and 9cisRA with [^3H]ATRA and [^3H]9cisRA for binding to the LBD	
CC1=C(/C=C/C(C)=C/C=C/C(C)=C/C(=O)O)C(C)(C)CCC1 [ATRA]		Competition by ATRA and 9cisRA with [^3H]ATRA and [^3H]9cisRA for binding to the LBD
